From ChEMBL document CHEMBL1201862, “PubChem BioAssay data set” (2004)
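Following 48 hours of exposure in 96-well plates, responses at five concentrations were used to interpolate endpoints linearly. At the GI50, growth is halved.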 Active and inactive are the calls of the source. No stated cut-off is given here; in the data, active = GI50 up to about 1.1 µM and inactive = higher.

How the values were obtained:
Assay in all cases: DTP human tumour cell line panel, 48 h
A498 = tested on: A498
CCRF-CEM = tested on: CCRF-CEM
HOP-92 = tested on: HOP-92
HT-29 = tested on: HT-29
K562 = tested on: K562
NCI-H23 = tested on: NCI-H23
NCI-H460 = tested on: NCI-H460
OVCAR-3 = tested on: OVCAR-3
RXF 393 = tested on: RXF 393
SF-268 = tested on: SF-268
SF-295 = tested on: SF-295
SF-539 = tested on: SF-539
SK-MEL-28 = tested on: SK-MEL-28
SK-MEL-2 = tested on: SK-MEL-2
SN12C = tested on: SN12C
SNB-75 = tested on: SNB-75
TK-10 = tested on: TK-10
HCT-15 = tested on: HCT-15
Hs-578T = tested on: Hs-578T
MCF7 = tested on: MCF7

## CC1=C(C(=O)Nc2ccc([N+](=O)[O-])cc2)C(c2ccco2)C(C(=O)Nc2ccc([N+](=O)[O-])cc2)=C(C)N1
A498
  GI50: 10.5 µM (inactive)
CCRF-CEM
  GI50: 5.18 µM (inactive)
HOP-92
  GI50: 14.8 µM (inactive)
HT-29
  GI50: 25.8 µM (inactive)
K562
  GI50: 6.37 µM (inactive)
NCI-H23
  GI50: 13.4 µM (inactive)
NCI-H460
  GI50: 20.1 µM (inactive)
OVCAR-3
  GI50: 11.2 µM (inactive)
RXF 393
  GI50: 4.61 µM (inactive)
SF-268
  GI50: 21.3 µM (inactive)
SF-295
  GI50: 28.1 µM (inactive)
SF-539
  GI50: 16.5 µM (inactive)
SK-MEL-28
  GI50: 28.2 µM (inactive)
SK-MEL-2
  GI50: 7.52 µM (inactive)
SN12C
  GI50: 16.3 µM (inactive)
SNB-75
  GI50: 2.72 µM (inactive)
TK-10
  GI50: 12.3 µM (inactive)

## Brc1ccc(-c2[nH]c3ccccc3c2/C=N\Nc2ccc(-c3nc4ccccc4[nH]3)cc2)cc1
CCRF-CEM
  GI50: < 0.01 µM (active)
HCT-15
  GI50: < 0.01 µM
HT-29
  GI50: < 0.01 µM (active)
Hs-578T
  GI50: < 0.01 µM (active)
K562
  GI50: < 0.01 µM (active)
MCF7
  GI50: < 0.0171 µM (active)
NCI-H23
  GI50: < 0.01 µM (active)
NCI-H460
  GI50: < 0.01 µM (active)
OVCAR-3
  GI50: < 0.01 µM (active)
RXF 393
  GI50: < 0.01 µM (active)
SF-268
  GI50: < 0.01 µM (active)
SF-295
  GI50: < 0.01 µM (active)
SF-539
  GI50: < 0.01 µM (active)
SK-MEL-2
  GI50: < 0.0139 µM (active)
SN12C
  GI50: < 0.01 µM (active)

## CC1=CC(=O)/C(=C/NC(=S)c2ccccc2)C(=O)O1
HCT-15
  GI50: > 100 µM
HOP-92
  GI50: > 100 µM (inactive)
HT-29
  GI50: > 100 µM (inactive)
MCF7
  GI50: > 100 µM (inactive)
NCI-H23
  GI50: > 100 µM (inactive)
NCI-H460
  GI50: > 100 µM (inactive)
OVCAR-3
  GI50: > 100 µM (inactive)
SF-295
  GI50: > 100 µM (inactive)
SF-539
  GI50: > 100 µM (inactive)
SK-MEL-28
  GI50: > 100 µM (inactive)
SK-MEL-2
  GI50: > 100 µM (inactive)
SN12C
  GI50: > 100 µM (inactive)
SNB-75
  GI50: > 100 µM (inactive)
TK-10
  GI50: > 100 µM (inactive)

## CC(C(=O)Oc1ccc2ccccc2c1-c1c(O)ccc2ccccc12)c1ccccc1 (stereo unspecified)
A498
  GI50: 15.9 µM (inactive)
CCRF-CEM
  GI50: 16.3 µM (inactive)
HCT-15
  GI50: 12.5 µM
HOP-92
  GI50: 10.3 µM (inactive)
HT-29
  GI50: 14.8 µM (inactive)
K562
  GI50: 15 µM (inactive)
NCI-H23
  GI50: 14.4 µM (inactive)
NCI-H460
  GI50: 13.7 µM (inactive)
OVCAR-3
  GI50: 12.6 µM (inactive)
RXF 393
  GI50: 11 µM (inactive)
SF-268
  GI50: > 10 µM (inactive)
SF-295
  GI50: 12.7 µM (inactive)
SF-539
  GI50: 16.3 µM (inactive)
SK-MEL-28
  GI50: 15.4 µM (inactive)
SK-MEL-2
  GI50: 15.1 µM (inactive)
SN12C
  GI50: 14.7 µM (inactive)
SNB-75
  GI50: 9.79 µM (inactive)
TK-10
  GI50: 17.6 µM (inactive)

## O=S(=O)(O)c1ccc2c(/N=N/c3ccc(Cl)cc3)c(O)ccc2c1
A498
  GI50: > 100 µM (inactive)
CCRF-CEM
  GI50: > 100 µM (inactive)
HCT-15
  GI50: > 100 µM
HOP-92
  GI50: > 100 µM (inactive)
HT-29
  GI50: > 100 µM (inactive)
Hs-578T
  GI50: > 100 µM (inactive)
K562
  GI50: > 100 µM (inactive)
NCI-H23
  GI50: > 100 µM (inactive)
OVCAR-3
  GI50: > 100 µM (inactive)
RXF 393
  GI50: > 100 µM (inactive)
SF-268
  GI50: > 100 µM (inactive)
SF-295
  GI50: > 100 µM (inactive)
SK-MEL-28
  GI50: > 100 µM (inactive)
SK-MEL-2
  GI50: > 100 µM (inactive)
SN12C
  GI50: > 100 µM (inactive)
SNB-75
  GI50: > 100 µM (inactive)
TK-10
  GI50: > 100 µM (inactive)

## O=C(C[N+]1(c2ccccc2)CCOCC1)c1ccccc1
A498
  GI50: > 100 µM (inactive)
HCT-15
  GI50: > 100 µM
HOP-92
  GI50: > 100 µM (inactive)
HT-29
  GI50: > 100 µM (inactive)
Hs-578T
  GI50: > 100 µM (inactive)
K562
  GI50: 40.9 µM (inactive)
NCI-H23
  GI50: > 100 µM (inactive)
NCI-H460
  GI50: > 100 µM (inactive)
OVCAR-3
  GI50: > 100 µM (inactive)
RXF 393
  GI50: > 100 µM (inactive)
SF-268
  GI50: > 100 µM (inactive)
SF-295
  GI50: > 100 µM (inactive)
SK-MEL-28
  GI50: 0.0445 µM (active)
SK-MEL-2
  GI50: > 100 µM (inactive)
SN12C
  GI50: > 100 µM (inactive)
SNB-75
  GI50: > 100 µM (inactive)
TK-10
  GI50: > 100 µM (inactive)

## CC(=O)C1C(=O)NC(=O)C1=O (stereo unspecified)
A498
  GI50: > 100 µM (inactive)
HCT-15
  GI50: > 100 µM
HOP-92
  GI50: > 100 µM (inactive)
HT-29
  GI50: > 100 µM (inactive)
K562
  GI50: > 100 µM (inactive)
NCI-H23
  GI50: > 100 µM (inactive)
NCI-H460
  GI50: > 100 µM (inactive)
OVCAR-3
  GI50: > 100 µM (inactive)
RXF 393
  GI50: > 100 µM (inactive)
SF-268
  GI50: > 100 µM (inactive)
SF-295
  GI50: > 100 µM (inactive)
SF-539
  GI50: > 100 µM (inactive)
SK-MEL-28
  GI50: > 100 µM (inactive)
SK-MEL-2
  GI50: > 100 µM (inactive)
SN12C
  GI50: > 100 µM (inactive)
SNB-75
  GI50: > 100 µM (inactive)
TK-10
  GI50: > 100 µM (inactive)

## CC(C)N(C(=O)C1(C)CC1)C(C)C
A498
  GI50: > 100 µM (inactive)
CCRF-CEM
  GI50: > 100 µM (inactive)
HCT-15
  GI50: > 100 µM
HOP-92
  GI50: > 100 µM (inactive)
HT-29
  GI50: > 100 µM (inactive)
K562
  GI50: > 100 µM (inactive)
NCI-H23
  GI50: > 100 µM (inactive)
OVCAR-3
  GI50: > 100 µM (inactive)
RXF 393
  GI50: > 100 µM (inactive)
SF-268
  GI50: > 100 µM (inactive)
SF-295
  GI50: > 100 µM (inactive)
SF-539
  GI50: > 100 µM (inactive)
SK-MEL-28
  GI50: > 100 µM (inactive)
SK-MEL-2
  GI50: > 100 µM (inactive)
SN12C
  GI50: > 100 µM (inactive)
SNB-75
  GI50: > 100 µM (inactive)
